In series [1] the test system is UCB CD34^+ cells in NSG mice. To be noted: mouse, in vivo. An excerpt: Engraftment of Human Normal and CML Cells in Immnunodeficient NSG Mice and Effect of FTY720 on Leukemic and Normal Hematopoietic Stem/Progenitor Cells. CD34+ cells were isolated from BM of CML patients (n=3) or from umbilical cord blood specimens (UCB; n=3). Note that CML samples were from patients in blastic transformation with ≧75% of Ph+ blasts. Sublethally irradiated (260 rads) 6-8 week-old NOD.Cg-Prkds^scid IL2rg^tm1WjI/SzJ (NSG, Jackson Laboratory) mice were intrafemorally injected with 1-3×10^6 CML or 10^5 UCB CD34^+ cells/mouse. The engraftment was assessed 8 weeks post-transplant by anti-human CD45 (BD Biosciences) and anti-mouse CD45.1 flow staining of intrafemoral BM aspirates and PB from tail vein. Wunderlich et al., Leukemia 24, 1785-1788 (2010). […] Disease evolution and effect of FTY720 on HSC-enriched cell fraction (CD45^+/CD34^+/CD38^−), primitive progenitors (CD45+/CD34+), myeloid (CD45^+/CD34^+/CD33^+), B-cell (CD45^+/CD19^+) and T-cell (CD45^+/CD3^+) compartments were determined before and after 4/8 weeks of FTY720 treatment by FACS-mediated analysis of BM aspirates and/or PB cells. BCR-ABL1 transcript levels were monitored by qRT-PCR-mediated (Ipsogen) analysis of BCR-ABL1/human Abl1 ratios in total RNA samples derived from BM-aspirates of CML-engrafted animals at time of engraftment (time 0) and after 8 weeks of FTY720 treatment. […]

In another series the test system is JAK2. Nature of the series: Intracellular flow staining of active JAK2 (pJAK2). The format is cell-based, human. As to conditions: CML CFSE^max/CD34^+ cells. How it is done: (§1) Flow cytontetric analysis and sorting of HSCs. Primary CD34^+ cells were isolated by magnetic cell sorting (CD34 MultiSort; Miltenyi Biotec) and kept in IMDM supplemented with 30% FBS, 2 mM Lglutamine, rhIL-3 (20 ng/ml), rhIL-6 (20 ng/ml), rhFlt-3 ligand (100 ng/ml), and rhKL (100 ng/ml) (Stem Cell Technologies). The CD34+ fraction derived from the BM of healthy donors and the PB or BM from CML patients was stained with anti-CD34 FITC or PE, and anti-CD38 PE-Cy7 (BD Biosciences). The Lin− fraction of murine mononuclear cells was stained with anti-Sca-1 PeCy7 (BD Biosciences) and anti-c-kit APC-AlexaFluor750 (eBioscience), The CD34^+/CD38^− or the Lin−/Sca-1+/c-Kit+ (LSK) fractions were sorted by fluorescence-activated cell sorting with a FACS Aria II instrument (BD Biosciences). […]

The subject of series [2] is Lin^− SCLtTA-BCR-ABL1 cells. Nature of the series: CFSE-mediated tracking of quiescent cells, mouse leukemic. The format is cell-based. To be noted: 2.5 μM FTY720. How it is done:
CFSE-mediated tracking of cell division. Carboxyfluorescein diacetate succinimidyl diester (CFSE)-stained cells (CellTrace CFSE Proliferation Kit: Invitrogen) were cultured in the presence of the indicated drugs (dosed at time zero and at day three), and the cells were harvested after 3 or 6 days in culture, and stained with anti-CD34 PE, Annexin-V V450, and the viability stain 7-AAD (BD Bioscience) to determine the number of viable quiescent cells (CFSEmax/CD34^+/7-AAD− cells) and the percentage of quiescent and apoptosis-committed cells (CFSEmax/CD34+/Annexin V+/7-AAD±). Cells were sorted into dividing and quiescent populations for Western blot analysis. For assessment of mouse quiescent leukemic HSCs, Lin- cells from 8 week-induced SCLtTA/BCR-ABL1 mice were CFSE-stained and used as described above. Quiescent cells (CFSE^max/CD34^+) were reported as a fraction of the initial number of CD34^+ cells.

Another series deals with T1, SET-PP2A interaction (Homo sapiens, UniProt Q01105).
T1 construct: untreated and FTY720-treated (24 h) CD34^+/CD38^− CML cells; endogenous in cells; host or cells: CD34+/CD38- CML patient cells
Nature of the series: Proximity ligation assay, SET-PP2A association. The format is cell-based. As to conditions: CD34^+/CD38^− CML cells, 24 h. An excerpt:
Immunofluorescence and proximity ligation assay. CD34^+/CD38^− cells from CML patient samples or LSK cells derived from induced leukemic mice were sorted, treated in liquid culture with the indicated drugs and cytospun onto glass slides. Slides were fixed in 3.7% formaldehyde, penneabilized with 0.05% Triton X-100, and stained with an Anti-®-catenin primary antibody (Cell signaling), a secondary goat F(ab′) anti-rabbit conjugated to Alexa Fluor 647, and the nuclear stain DAPI (Invitrogen); slides were mounted with Slowfade antifade reagent (Invitrogen). Microphotographs were obtained with a Zeiss LSM 510 confocal laser-scanning microscope with C-Apochromat 63/1.2 W objective. A minimum of three fields for each slide were acquired. For the Proximity Ligation Assay (PLA) CD34+/CD38− CML cells were treated, fixed, and permeabilized as described above. The slides were then simultaneously stained with a mix of mouse anti-PP2A (Millipore) and rabbit anti-SET (Globozyme) antibodies. The PLA procedure (Duolink; Olink Bioscience) was performed according to manufacturer instructions. An average of 20 z-stack ([…]) were captured with a Zeiss LSM 510 confocal laser-scanning microscope with C-Apochromat 63/1.2 W objective; at least three fields/slide were acquired. Three-dimensional projections were generated and positive signals/cell were calculated by ImageJ software (NIH).

For the next series, the system named is BCR-ABL1. Kind of series: Intracellular flow staining of active BCR-ABL1 (pABL). The format is cell-based, human. How it is done:
as §1

Here are results for 1 compound from patent publication US9220706B2, “Inhibition of leukemic stem cells by PP2A activating agents” (Ohio State Innovation Foundation, priority 2012, dated 2015).

T1 sequence (Q01105 1-277 isoform Q01105-2): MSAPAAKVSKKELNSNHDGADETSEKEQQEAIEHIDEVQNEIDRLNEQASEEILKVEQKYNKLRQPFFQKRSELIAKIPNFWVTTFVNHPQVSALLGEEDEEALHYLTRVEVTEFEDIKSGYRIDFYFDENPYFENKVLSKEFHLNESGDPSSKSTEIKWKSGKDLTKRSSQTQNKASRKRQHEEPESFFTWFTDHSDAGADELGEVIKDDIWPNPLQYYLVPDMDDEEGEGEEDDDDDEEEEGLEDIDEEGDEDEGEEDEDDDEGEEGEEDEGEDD

As for `CCCCCCCCc1ccc(CCC(N)(CO)CO)cc1` [FTY720], in series [1], the “effect on human BM cell fractions” value was “did not exert noteworthy effects”; the “numbers of circulating B-(CD19^+) and T-(CD3^+) cells” value was “reduced numbers”. The “JAK2 activity (pJAK2)” value in the series on JAK2 is given as “suppressed”. In addition, the “decrease in CFSE^max HSCs” value in series [2] is given as 70-90%. Moreover, at SET-PP2A interaction, the SET-PP2A interaction entry is given as “disrupts the SET-PP2A interaction”. For the same compound, the “inhibition of BCR-ABL1 activity (pABL levels)” value with BCR-ABL1 (bulk CD34 CML cells) is “occurred in the bulk”. Moreover, in the series with BCR-ABL1 (quiescent fraction (CFSE^max) of CD34 CML cells), the “inhibition of BCR-ABL1 activity (pABL levels)” value is given as “not in the quiescent fraction”.
